Data from patent US20150250167A1, “COMPOSITION FOR NOXIOUS ORGANISMS-CONTROLLING AGENT AND METHOD FOR USING THE SAME” (priority 2001, published 2015).

Columns and labels:
[1] = test system: Rice Water Weevil (Lissorhoptrus oryzophilus); experiment: Control of rice water weevil on paddyfield rice by nursery box application, extent of injury; format: in vivo; details: 0.5 g ai/Box, single agent
[2] = test system: Smaller Tea Tortrix (Adoxophyes orana fosciota); experiment: Insecticidal test on smaller tea tortrix, tea leaf dipping; format: in vivo; details: single agent 0.3 ppm, 4th instar larvae, 25° C.
Protocol: Insecticidal Test on Smaller Tea Tortrix (Adoxophyes orana fosciota)
Tea leaves were dipped in a solution of a chemical diluted to a prescribed concentration for 30 seconds. […] Four days and seven days after the treatment, the number of alive insects were counted, from which percentage of death was calculated.

[3] = test system: Rice Leafroller (Cnaphalocrosis medinalis); experiment: Control of rice leafroller on paddyfield rice by nursery box application, number of injured leaves; format: in vivo; details: 0.5 g ai/Box, single agent
Protocol: (§1) Test for the Control of Small Brown Planthopper (Laodelphax striatellus) and Rice Leafroller (Cnaphalocrosis medinalis) on Paddyfield Rice Plant by Nursery Box Application
(§2) Fifty grams of a granular preparation was applied to rice plant (variety: Nihombare) cultured in a nursery box, after which the rice plant was transplanted to the main paddy field (in the middle of May). The controlling effect against small brown planthopper was evaluated by investigating the number of parasitic insects on 30 hills per each plot, 40 days and 60 days after the transplantation. The controlling effect against rice leafroller was evaluated by investigating the number of injured leaves on 100 hills per each plot, 50 days after the transplantation.

[4] = test system: Brown Rice Planthopper (Nilaparvata lugens); experiment: Insecticidal test on brown rice planthopper, rice seedling dipping; format: in vivo; details: 100 ppm, single agent; for Death rate (%) After 1 days: after 1 day
Source text: Insecticidal Test on Brown Rice Planthopper (Nilaparvata lugens)
Rice seedlings (variety: Nihombare) were dipped in a solution of an agent diluted to a predetermined concentration for 30 seconds. After air-dryness, each seedling was introduced into a glass-made test tube having a diameter of 1.8 cm and a height of 20 cm, and inoculated with ten 3rd inster nimphs of brown rice planthopper. Then, the test tube was stoppered with cotton. One day after and four days after the treatment, the number of alive insects was counted, based on which the insect death rate was calculated.

Rice Blast = details: in vivo
[5] = test system: Small Brown Planthopper (Laodelphax striatellus); experiment: Control of small brown planthopper on paddyfield rice by nursery box application, number of parasitic insects; format: in vivo; details: 0.5 g ai/Box, single agent
Protocol: as §1, §2

Aphid = experiment: Control of aphid on cabbage by soil treatment, number of parasitic insects; format: in vivo; details: 5 mg ai/hill, 21 days after transplanting
Protocol: (§3) Test for the Control of Diamondback Moth (Plutella xyloxtella) and Aphid on Cabbage by Soil Treatment
A granular preparation was mixed into bed soil, and the mixture was filled into a cell seedling box and sown with seeds of cabbage (variety: YR Seitoku). Otherwise, cell seedling planted cabbage was treated with the granular agent either by a treatment in the foliage leaf extraction period, or by a pre-transplanting treatment, or by a pricking-in hole treatment, or by a plant foot treatment after the planting. […]

[6] = test system: Southern Root-Knot Nematode (Meloidogyne incognita); experiment: Test for the effect on southern root-knot nematode, soil blending with granular preparation; format: in vivo; details: 300 g ai/10a, single agent, 60 days after treatment
Source text: Test for the Effect on Southern Root-Knot Nematode (Meloidogyne incognita)
Two killograms of a soil polluted with southern root-knot nematode was blended with a predetermined dose of a granular preparation. The mixture was filled into a 1/5,000 are Wagner pot. After sowing melon seeds and carrying out the treatment of the present invention, the pot was left to stand in a greenhouse. Sixty days after the treatment, 25 g of the soil was sampled out, the nematode was separated therefrom according to the method of Berman, and the numbers of nematodes were counted after 48 hours.
In the tables, “ai” means active ingredient.

[7] = test system: Resistant Strain of Two-Spotted Spider Mite; details: 100 ppm, single agent, 2 days after spraying
[8] = test system: Green Peach Aphid (Myzus persicae); experiment: Insecticidal test on green peach aphid, spraying of Chinese cabbage, control value; format: in vivo; details: 100 ppm, single agent, 6 days after spraying
Cutworm = experiment: Test for the effect against cutworm on beet, drench, number of injured hills per 100 hills; format: in vivo; details: 15 g ai/10a
Protocol: Test for the Effect Against Cutworm on Beet
Beet seedlings (variety: Monoace S) planted in a paper pot was treated with 3 L/m^2 of a solution of an agent diluted to a predetermined concentration, by the method of drench. Just after the drench, the plant was set. Predetermined days after the setting, the number of injured hills per 100 hills was counted.

[9] = test system: Citrus Yellow Thrips (Frankliniella occidentalis); experiment: Control of citrus yellow thrips on egg plant by combined use with natural enemy pesticide, number of thrips; format: in vivo; details: 100 ppm, spray
[10] = test system: Diamondback Moth (Plutella xyloxtella); experiment: Control of diamondback moth on cabbage by soil treatment, number of parasitic insects; format: in vivo; details: 5 mg ai/hill, 21 days after transplanting
Protocol: as §3
A granular preparation was mixed into bed soil, and the mixture was filled into a cell seedling box and sown with seeds of cabbage (variety: YR Seitoku). Otherwise, cell seedling planted cabbage was treated with the granular agent either by a treatment in the foliage leaf extraction period, or by a pre-transplanting treatment, or by a pricking-in hole treatment, or by a plant foot treatment after the planting. Twenty one days after the transplanting (in the middle of June), the number of parasitic insects was counted on 30 hills in the case of diamondback moth and on 10 hills in the case of aphid.

[11] = true leaf extraction season treatment

| SMILES | Extent of injury After 21 days [1] | Death rate (%) After 4 days [2] [%] | Death rate (%) After 7 days [2] [%] | Percentage of injured leaves (%) After 50 days [3] [%] | Death rate (%) After 1 days [4] [%] | Death rate (%) After 5 days [4] [%] | Areal rate of disease spot (%) After 60 days (Rice Blast) [%] | Number of parasitic planthoppers per 30 hills After 40 days [5] | Number of parasitic planthoppers per 30 hills After 60 days [5] | Number of parasitic insects per 30 hills, Aphid (Aphid; plant foot treatment) | Number of parasitic insects per 30 hills, Aphid (Aphid; pre-transplanting treatment) | Number of parasitic insects per 30 hills, Aphid (Aphid; pricking-in hole treatment) | Number of parasitic insects per 30 hills, Aphid (Aphid; soil incorporation) | Number of parasitic insects per 30 hills, Aphid (Aphid; [11]) | Number of nematodes per 25 g of soil sample [6] | Death rate (%) [7] [%] | Control degree (%) [8] [%] | Number of injured hills per 100 hills, After 60 days (Cutworm) | Number of injured hills per 100 hills, After 90 days (Cutworm) | Number of injured hills per 100 hills, After 120 days (Cutworm) | also measured |
| --- | --- | --- | --- | --- | --- | --- | --- | --- | --- | --- | --- | --- | --- | --- | --- | --- | --- | --- | --- | --- | --- |
| Cc1cc(C(F)(F)C(F)(F)F)ccc1NC(=O)c1cccc(I)c1C(=O)NC(C)C [Compound 41] | 43.2 | 0 | 30 | 0.35 | 0 | 0 | 8.5 | 333 | 385 | 456 | 458 | 511 | 457 | 495 | 31 | 0 | 0 | 0 | 7 | 21 | Number of parasitic insects per 20 leaves, After 60 days [9]: 18; Number of parasitic insects per 20 leaves, After 90 days [9]: 29; Number of parasitic insects per 20 leaves, After 120 days [9]: 59; Number of parasitic insects per 30 hills, Diamondback moth ([10]; plant foot treatment): 2; Number of parasitic insects per 30 hills, Diamondback moth ([10]; pre-transplanting treatment): 1; Number of parasitic insects per 30 hills, Diamondback moth ([10]; pricking-in hole treatment): 2; Number of parasitic insects per 30 hills, Diamondback moth ([10]; soil incorporation): 3; Number of parasitic insects per 30 hills, Diamondback moth [10, 11]: 2 |
| CC(C)NC(=O)c1c(I)cccc1C(=O)Nc1ccc(C(F)(F)F)cc1Cl [Compound 39] | 38.9 | 0 | 20 | 0.25 | 0 | 0 | 8.2 | 343 | 372 | 456 | 457 | 437 | 513 | 487 | 34 | 0 | 0 | 0 | 6 | 17 | Number of parasitic insects per 20 leaves, After 60 days [9]: 19; Number of parasitic insects per 20 leaves, After 90 days [9]: 32; Number of parasitic insects per 20 leaves, After 120 days [9]: 58; Number of parasitic insects per 30 hills, Diamondback moth ([10]; plant foot treatment): 2; Number of parasitic insects per 30 hills, Diamondback moth ([10]; pre-transplanting treatment): 4; Number of parasitic insects per 30 hills, Diamondback moth ([10]; pricking-in hole treatment): 3; Number of parasitic insects per 30 hills, Diamondback moth ([10]; soil incorporation): 3; Number of parasitic insects per 30 hills, Diamondback moth [10, 11]: 2 |
| Cc1cc(C(F)(F)C(F)(F)F)ccc1NC(=O)c1cccc(Cl)c1C(=O)NC(C)C [Compound 19] | 38.9 | 0 | 30 | 0.16 | 0 | 0 | 8.3 | 325 | 389 | 489 | 399 | 467 | 445 | 457 | 36 | 0 | 0 | 0 | 8 | 21 | Number of parasitic insects per 20 leaves, After 60 days [9]: 20; Number of parasitic insects per 20 leaves, After 90 days [9]: 27; Number of parasitic insects per 20 leaves, After 120 days [9]: 55; Number of parasitic insects per 30 hills, Diamondback moth ([10]; plant foot treatment): 2; Number of parasitic insects per 30 hills, Diamondback moth ([10]; pre-transplanting treatment): 1; Number of parasitic insects per 30 hills, Diamondback moth ([10]; pricking-in hole treatment): 1; Number of parasitic insects per 30 hills, Diamondback moth ([10]; soil incorporation): 1; Number of parasitic insects per 30 hills, Diamondback moth [10, 11]: 2 |
| Cc1cc(OC(F)(F)F)ccc1NC(=O)c1cccc(I)c1C(=O)NC(C)C [Compound 44] | 45.9 | 0 | 20 | 0.24 | 0 | 0 | 9.1 | 323 | 358 | 492 | 498 | 478 | 449 | 502 | 29 | 0 | 0 | 0 | 7 | 20 | Number of parasitic insects per 20 leaves, After 60 days [9]: 25; Number of parasitic insects per 20 leaves, After 90 days [9]: 33; Number of parasitic insects per 20 leaves, After 120 days [9]: 53; Number of parasitic insects per 30 hills, Diamondback moth ([10]; plant foot treatment): 2; Number of parasitic insects per 30 hills, Diamondback moth ([10]; pre-transplanting treatment): 3; Number of parasitic insects per 30 hills, Diamondback moth ([10]; pricking-in hole treatment): 3; Number of parasitic insects per 30 hills, Diamondback moth ([10]; soil incorporation): 3; Number of parasitic insects per 30 hills, Diamondback moth [10, 11]: 2 |
| Cc1cc(C(F)(C(F)(F)F)C(F)(F)F)ccc1NC(=O)c1cccc(I)c1C(=O)NC(C)C [Compound 43] | 44.3 | 0 | 35 | 0.17 | 0 | 0 | 8.9 | 309 | 334 | 467 | 482 | 447 | 501 | 448 | 36 | 0 | 0 | 0 | 6 | 19 | Number of parasitic insects per 20 leaves, After 60 days [9]: 23; Number of parasitic insects per 20 leaves, After 90 days [9]: 31; Number of parasitic insects per 20 leaves, After 120 days [9]: 57; Number of parasitic insects per 30 hills, Diamondback moth ([10]; plant foot treatment): 2; Number of parasitic insects per 30 hills, Diamondback moth ([10]; pre-transplanting treatment): 3; Number of parasitic insects per 30 hills, Diamondback moth ([10]; pricking-in hole treatment): 1; Number of parasitic insects per 30 hills, Diamondback moth ([10]; soil incorporation): 2; Number of parasitic insects per 30 hills, Diamondback moth [10, 11]: 2 |
